Measured values published in patent US20240293392A1, “INHIBITOR COMPOUNDS” (NeoPhore Limited, priority 2021, published 2024).

Experiments:
[1] = molecular target: T1, recombinant N-terminal MLH1 (residues 15-340) (Homo sapiens, UniProt P40692); assay: Fluorescence Polarisation Assay for MLH1; assay type: binding; settings: fluorescence polarisation probe displacement; 100 nM N-terminal MLH1, 5 nM probe compound
T1 construct: recombinant N-terminal MLH1 (residues 15-340)
T1 sequence (P40692 15-340): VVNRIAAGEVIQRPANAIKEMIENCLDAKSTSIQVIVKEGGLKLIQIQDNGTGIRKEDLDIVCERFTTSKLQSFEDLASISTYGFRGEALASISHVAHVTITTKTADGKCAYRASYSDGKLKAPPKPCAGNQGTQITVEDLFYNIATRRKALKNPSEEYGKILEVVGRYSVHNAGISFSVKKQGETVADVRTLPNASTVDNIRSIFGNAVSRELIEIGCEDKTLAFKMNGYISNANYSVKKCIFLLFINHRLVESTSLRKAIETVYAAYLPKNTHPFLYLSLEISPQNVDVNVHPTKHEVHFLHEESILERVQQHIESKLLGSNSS
Method: Fluorescence Polarisation Assay for MLH1
Test compounds, as 10 mM DMSO stocks, were dispensed into a 384-well Low Flange Black Flat Bottom Polystyrene Non-binding Surface plate (Corning®, item number 3575) using a Labcyte Echo acoustic liquid handler. Test compounds were added to wells in columns 1-22 whilst DMSO was added to wells in columns 23 and 24 in order to normalise the plate. 20 μL of a 2× solution (200 nM) of recombinant N-terminal MLH1 (residues 15-340) in assay buffer (25 mM HEPES, pH 7.5, 250 mM NaCl, 10 mM MgCl2, 0.01% Triton X-100, 5 mM dithiothreitol) was added to all wells in columns 1-23 and 20 μL assay buffer was added to all wells in column 24 using an E1-ClipTip pipette (ThermoFisher). Plates were centrifuged for 1 minute at 250×g and were incubated at room temperature for 30 minutes prior to the addition of 20 μL of 2× (10 nM) 5-((5-(4-((2-(2,4-dihydroxy-5-isopropylbenzoyl)isoindolin-5-yl)methyl)piperazin-1-yl)pentyl)carbamoyl)-2-(6-(dimethylamino)-3-(dimethyliminio)-3H-xanthen-9-yl)benzoate in assay buffer (prepared from a 1 mM DMSO stock) with an E1-ClipTip pipette (ThermoFisher). The final concentration of N-terminal MLH1 was 100 nM and the final concentration of the probe compound was 5 nM. Compound plates were centrifuged for 1 minute at 250×g for 1 minute and immediately read on a PheraStar FSX (fitted with 384-well aperture spoon and 590 675 675 FP optic module). The gain and focus were adjusted before each plate was read so that the polarisation of a no enzyme control (column 24) was equal to 35 mP. Data were normalised against the no inhibitor controls (column 23) and no enzyme controls (column 24).

[2] = molecular target: T2, recombinant N-terminal PMS2 (residues 1-365) (Homo sapiens, UniProt P54278); assay: Fluorescence Polarisation Assay for PMS2; assay type: binding; settings: fluorescence polarisation probe displacement; 10 nM N-terminal PMS2, 5 nM probe compound; read-out: PMS2 IC50
T2 construct: recombinant N-terminal PMS2 (residues 1-365)
T2 sequence (P54278 1-365): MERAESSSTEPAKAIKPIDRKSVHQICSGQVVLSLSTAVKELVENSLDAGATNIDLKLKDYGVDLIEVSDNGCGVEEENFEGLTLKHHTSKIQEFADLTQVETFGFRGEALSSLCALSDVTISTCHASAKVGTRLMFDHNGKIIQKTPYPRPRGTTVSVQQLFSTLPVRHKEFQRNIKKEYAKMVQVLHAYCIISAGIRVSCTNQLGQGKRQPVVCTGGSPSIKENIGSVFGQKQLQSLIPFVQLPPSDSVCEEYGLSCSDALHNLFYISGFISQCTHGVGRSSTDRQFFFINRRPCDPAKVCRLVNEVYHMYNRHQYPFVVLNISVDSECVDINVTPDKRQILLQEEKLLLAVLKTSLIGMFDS
Method: Fluorescence Polarisation Assay for PMS2
For single point screening, test compounds were added to wells in columns 1-22 whilst DMSO was added to wells in columns 23 and 24 in order to normalise the plate. For potency determination, serial dilutions of test compounds were added to wells in columns 3-22 and DMSO volume was normalised across the plate.
20 μL assay buffer was added to all wells in columns 1 and 24 (column 24 only for single point screening) using a MultiDrop Combi (ThermoFisher). Plates were centrifuged for 1 minute at 250×g and were incubated at room temperature for 30 minutes prior to the addition of 20 μL of 2× (20 nM) of 5-((5-(4-((2-(2,4-dihydroxy-5-isopropylbenzoyl)isoindolin-5-yl)methyl)piperazin-1-yl)pentyl)carbamoyl)-2-(6-(dimethylamino)-3-(dimethyliminio)-3H-xanthen-9-yl)benzoate (referred to hereinafter as “probe compound”) in assay buffer (prepared from a 100 μM DMSO stock) with a MultiDrop Combi (ThermoFisher). The final concentration of N-terminal PMS2 was 10 nM and the final concentration of probe compound was 5 nM.
Compound plates were centrifuged for 1 minute at 250×g for 1 minute and were incubated at room temperature for 1 hour before being read on a PheraStar FSX (fitted with 384-well aperture spoon and 540 590 590 FP optic module). The gain and focus were adjusted before each plate was read so that the polarisation of a no enzyme control (column 24) was equal to 35 mP. Data were normalised against the no inhibitor controls (column 23) and no enzyme controls (column 24).

Structure (SMILES)	IC50 [1] [µM]	IC50 [2] [µM]
O=C(c1c(O)cc(O)cc1OCc1ccccc1)N1Cc2cccc(NC3CCCOC3)c2C1 (single isomer, unassigned) [Example 30, (2-(Benzyloxy)-4,6-dihydroxyphenyl)(4-((tetrahydro-2H-pyran-3-yl)amino)isoindolin-2-yl)methanone]	< 1	1 to 10
O=C(c1c(O)cc(O)cc1OCc1ccccc1)N1Cc2cccc(NC3CCCOC3)c2C1 (single isomer, unassigned) [Example 31, (2-(Benzyloxy)-4,6-dihydroxyphenyl)(4-((tetrahydro-2H-pyran-3-yl)amino)isoindolin-2-yl)methanone]	1 to 10	> 10
O=C(c1c(O)cc(O)cc1OCc1ccccc1)N1Cc2ccccc2C(O)C1 (single isomer, unassigned) [Example 50, (2-Benzyloxy-4,6-dihydroxy-phenyl)-(4-hydroxy-3,4-dihydro-1H-isoquinolin-2-yl)methanone]	1 to 10	> 10
O=C(c1c(O)cc(O)cc1OCc1ccccc1)N1Cc2ccccc2C(O)C1 (single isomer, unassigned) [Example 51, (2-Benzyloxy-4,6-dihydroxy-phenyl)-(4-hydroxy-3,4-dihydro-1H-isoquinolin-2-yl)methanone]	1 to 10	> 10
CN1CC(Nc2cccc3c2CN(C(=O)c2c(O)cc(O)cc2OCc2ccccc2)CC3)CC1=O (single isomer, unassigned) [Example 61, 4-((2-(2-(Benzyloxy)-4,6-dihydroxybenzoyl)-1,2,3,4-tetrahydroisoquinolin-8-yl)amino)-1-methylpyrrolidin-2-one]	< 1	> 10
CN1CC(Nc2cccc3c2CN(C(=O)c2c(O)cc(O)cc2OCc2ccccc2)CC3)CC1=O (single isomer, unassigned) [Example 62, 4-((2-(2-(Benzyloxy)-4,6-dihydroxybenzoyl)-1,2,3,4-tetrahydroisoquinolin-8-yl)amino)-1-methylpyrrolidin-2-one]	< 1	< 1
COc1cc2c(c(NC3CCOC3)c1)CN(C(=O)c1c(O)cc(O)cc1OCc1ccccc1)CC2 (single isomer, unassigned) [Example 72, (2-(Benzyloxy)-4,6-dihydroxyphenyl)(6-methoxy-8-((tetrahydrofuran-3-yl)amino)-3,4-dihydroisoquinolin-2(1H)-yl)methanone]	< 1	1 to 10
COc1cc2c(c(NC3CCOC3)c1)CN(C(=O)c1c(O)cc(O)cc1OCc1ccccc1)CC2 (single isomer, unassigned) [Example 73, (2-(Benzyloxy)-4,6-dihydroxyphenyl)(6-methoxy-8-((tetrahydrofuran-3-yl)amino)-3,4-dihydroisoquinolin-2(1H)-yl)methanone]	1 to 10	> 10
O=C(c1c(O)cc(O)cc1OCc1ccccc1)N1CCc2cccc(NC3CCS(=O)(=O)C3)c2C1 (single isomer, unassigned) [Example 147a, (2-(Benzyloxy)-4,6-dihydroxyphenyl)(8-((1,1-dioxidotetrahydrothiophen-3-yl)amino)-3,4-dihydroisoquinolin-2(1H)-yl)methanone]	< 1	> 10
O=C(c1c(O)cc(O)cc1OCc1ccccc1)N1CCc2cccc(NC3CCS(=O)(=O)C3)c2C1 (single isomer, unassigned) [Example 147b, (2-(Benzyloxy)-4,6-dihydroxyphenyl)(8-((1,1-dioxidotetrahydrothiophen-3-yl)amino)-3,4-dihydroisoquinolin-2(1H)-yl)methanone]	< 1	1 to 10
O=C(c1c(O)cc(O)cc1OCc1ccccc1)N1CCc2cccc(N[C@@H]3CCOC3)c2C1 [Example 1, (R)-(2-(Benzyloxy)-4,6-dihydroxyphenyl)(8-((tetrahydrofuran-3-yl)amino)-3,4-dihydro-isoquinolin-2(1H)-yl)methanone]	< 1	> 10
O=C(c1c(O)cc(O)cc1OCc1ccccc1)N1CCc2cccc(N[C@H]3CCOC3)c2C1 [Example 2, (S)-(2-(Benzyloxy)-4,6-dihydroxyphenyl)(8-((tetrahydrofuran-3-yl)amino)-3,4-dihydro-isoquinolin-2(1H)-yl)methanone]	< 1	1 to 10
O=C(c1c(O)cc(O)cc1OCc1ccccc1)N1Cc2ccc(CN3CCNCC3)cc2C1 [Example 3, (2-(Benzyloxy)-4,6-dihydroxyphenyl)(5-(piperazin-1-ylmethyl)isoindolin-2-yl)methanone]	< 1	1 to 10
CNCc1ccc2c(c1)CN(C(=O)c1c(O)cc(O)cc1OCc1ccccc1)C2 [Example 4, (2-(Benzyloxy)-4,6-dihydroxyphenyl)(5-((methylamino)methyl)isoindolin-2-yl)methanone]	< 1	< 1
N#CC1CC(Oc2cccc3c2CN(C(=O)c2c(O)cc(O)cc2OCc2ccccc2)C3)C1 (stereo not shown) [Example 5, 3-((2-(2-(Benzyloxy)-4,6-dihydroxybenzoyl)isoindolin-4-yl)oxy)cyclobutane-1-carbonitrile]	1 to 10	1 to 10
O=C(c1c(O)cc(O)cc1OCc1ccccc1)N1Cc2cccc(NC3CCOC3)c2C1 (stereo not shown) [Example 6, (2-(Benzyloxy)-4,6-dihydroxyphenyl)(4-((tetrahydrofuran-3-yl)amino)isoindolin-2-yl)methanone]	< 1	1 to 10
O=C(c1c(O)cc(O)cc1OCc1ccccc1)N1Cc2cccc(NC3COC3)c2C1 [Example 7, (2-(Benzyloxy)-4,6-dihydroxyphenyl)(4-(oxetan-3-ylamino)isoindolin-2-yl)methanone]	< 1	1 to 10
O=C(c1c(O)cc(O)cc1OCc1ccccc1)N1Cc2cccc(N3CCCC(O)C3)c2C1 (stereo not shown) [Example 8, (2-(Benzyloxy)-4,6-dihydroxyphenyl)(4-(3-hydroxypiperidin-1-yl)isoindolin-2-yl)methanone]	1 to 10	1 to 10
CN1CCN(Cc2cccc3c2CN(C(=O)c2c(O)cc(O)cc2OCc2ccccc2)C3)CC1 [Example 9, (2-(Benzyloxy)-4,6-dihydroxyphenyl)(4-((4-methylpiperazin-1-yl)methyl)isoindolin-2-yl)methanone]	1 to 10	1 to 10
O=C(c1c(O)cc(O)cc1OCc1ccccc1)N1Cc2cccc(CN3CCOCC3)c2C1 [Example 10, (2-(Benzyloxy)-4,6-dihydroxyphenyl)(4-(morpholinomethyl)isoindolin-2-yl)methanone]	1 to 10	1 to 10
